Reference: PMC11822212, “High-throughput screening identifies Aurora kinase B as a critical therapeutic target for Merkel cell carcinoma” (Nature Communications, 2025)
Counter-ions that a name gives are not always drawn.

Columns and labels:
MCC13 cells (VN-MCC) = test: qHTS cell viability (CellTiter-Glo, 72 h; primary and follow-up small molecule screen); format: cell-based, human
MCC26 cells (VN-MCC) = test: as above; format: cell-based, human
UISO cells (VN-MCC) = test: as above; format: cell-based, human
WAGA cells (VP-MCC) = test: as above; format: cell-based, human
MKL-1 cells (VP-MCC) = test: as above; format: cell-based, human
MKL-2 cells (VP-MCC) = test: as above; format: cell-based, human
HACAT cells = test: qHTS cell viability (CellTiter-Glo, 72 h; primary screen), control cell line; format: cell-based, human
HEK293T cells = test: as above; format: cell-based, human
NIH-3T3 cells = test: as above; format: cell-based, mouse
CRL-7250 cells = test: as above; format: cell-based
[1] = system: MCC cell lines (WAGA, MKL-1, MKL-2, MCC13, MCC26, UISO); test: qHTS cell viability, all six MCC cell lines as a group (mean AUC, MCC.avg); format: cell-based, human; details: mean AUC of six MCC cell lines
[2] = system: VP-MCC cell lines (WAGA, MKL-1, MKL-2); test: qHTS cell viability, VP-MCC cell lines as a group (mean AUC, VP.MCC.avg); format: cell-based, human; details: for VP-MCC_Avg_AUC: mean AUC of VP-MCC cell lines
[3] = system: VN-MCC cell lines (MCC13, MCC26, UISO); test: qHTS cell viability, VN-MCC cell lines as a group (mean AUC, VN.MCC.avg); format: cell-based, human; details: for VN-MCC_Avg_AUC: mean AUC of VN-MCC cell lines
[4] = system: control cell lines (HACAT, HEK293T, CRL-7250, NIH-3T3); test: qHTS cell viability, control cell lines as a group (mean AUC, Control.avg); format: cell-based; details: mean AUC of control cell lines
[5] = system: six MCC cell lines and four control cell lines; test: qHTS cell viability, all 10 cell lines screened; format: cell-based
[6] = NPC library, qHTS dose-response AUC, MCC13
[7] = NPC library, qHTS dose-response AUC, MCC26
[8] = NPC library, qHTS dose-response AUC, UISO
[9] = NPC library, qHTS dose-response AUC, WAGA
[10] = NPC library, qHTS dose-response AUC, MKL1
[11] = NPC library, qHTS dose-response AUC, MKL2
[12] = NPC library, qHTS dose-response AUC, HACAT control
[13] = NPC library, qHTS dose-response AUC, HEK293T control
[14] = NPC library, qHTS dose-response AUC, NIH3T3 control
[15] = NPC library, qHTS dose-response AUC, CRL7250 control
[16] = NPC library, therapeutic window: Control avg AUC minus VP-MCC avg AUC
[17] = NPC library, therapeutic window: Control avg AUC minus VN-MCC avg AUC
[18] = NPC library, therapeutic window: Control avg AUC minus MCC avg AUC
[19] = MIPE library, 11-point DRC, sheet S2E
[20] = MIPE library, 11-point DRC, control cell line, sheet S2E

Row | SMILES | MCC13_AUC (MCC13 cells (VN-MCC); [6]) | MCC26_AUC (MCC26 cells (VN-MCC); [7]) | UISO_AUC (UISO cells (VN-MCC); [8]) | WAGA_AUC (WAGA cells (VP-MCC); [9]) | MKL1_AUC (MKL-1 cells (VP-MCC); [10]) | MKL2_AUC (MKL-2 cells (VP-MCC); [11]) | HACAT_AUC (HACAT cells; [12]) | HEK293T_AUC (HEK293T cells; [13]) | NIH3T3_AUC (NIH-3T3 cells; [14]) | CRL7250_AUC (CRL-7250 cells; [15]) | MCC_Avg_AUC ([1]; NPC library) | VP-MCC_Avg_AUC ([2]; NPC library) | Control-VP-MCC [2, 16] | VN-MCC_Avg_AUC ([3]; NPC library) | Control-VN-MCC [3, 17] | Control_Avg_AUC ([4]; NPC library) | Control-MCC [5, 18] | further results
1 | O=C1OC(CCN2CCCCC2)OC1(c1ccccc1)c1ccccc1 (centres unmarked) [Pipoxolan hydrochloride] | 478.552 | 460.749 | 412.652 | 433.006 | 437.466 | 392.534 | 493.052 | 445.369 | 468.074 | 487.056 | 435.827 | 421.002 | 52.3854 | 450.651 | 22.7364 | 473.388 | 37.5609 | 
2 | C=C1/C(=C\C=C2/CCC[C@]3(C)[C@@H]([C@H](C)/C=C/[C@H](C)C(C)C)CC[C@@H]23)C[C@@H](O)C[C@@H]1O [1-alpha-Hydroxyergocalciferol] |  |  |  |  |  |  |  |  |  |  |  |  |  |  |  |  |  | MCC13_AUC (MCC13 cells (VN-MCC); [19]): 466.906; MCC26_AUC (MCC26 cells (VN-MCC); [19]): 429.194; UISO_AUC (UISO cells (VN-MCC); [19]): 386.134; WAGA_AUC (WAGA cells (VP-MCC); [19]): 235.191; MKL1_AUC (MKL-1 cells (VP-MCC); [19]): 338.352; MKL2_AUC (MKL-2 cells (VP-MCC); [19]): 310.498; HACAT_AUC (HACAT cells; [20]): 470.948; HEK293T_AUC (HEK293T cells; [20]): 473.524; NIH3T3_AUC (NIH-3T3 cells; [20]): 349.858; CRL7250_AUC (CRL-7250 cells; [20]): 418.5; MCC_Avg_AUC ([1]; MIPE library, sheet S2E): 361.046; Control-VP-MCC ([2]; MIPE library, Control AUC minus VP-MCC AUC (therapeutic window), sheet S2E): 133.527; VP-MCC_Avg_AUC ([2]; MIPE library, sheet S2E): 294.68; Control-VN-MCC ([3]; MIPE library, Control AUC minus VN-MCC AUC (therapeutic window), sheet S2E): 0.7959; VN-MCC_Avg_AUC ([3]; MIPE library, sheet S2E): 427.411; Control_Avg_AUC ([4]; MIPE library, sheet S2E): 428.207; Control-MCC ([5]; MIPE library, Control AUC minus MCC AUC (therapeutic window), sheet S2E): 67.1615
3 | CNS(=O)(=O)CCc1ccc2[nH]cc(C3CCN(C)CC3)c2c1 [Naratriptan hydrochloride] | 448.681 | 402.936 | 436.144 | 412.133 | 385.118 | 428.785 | 491.601 | 455.258 | 449.036 | 454.782 | 418.966 | 408.679 | 53.9902 | 429.254 | 33.4153 | 462.669 | 43.7027 | 
4 | O=C(CCN1CCC(c2ccccc2)C1)c1ccc2c(c1)OCCO2 (centres unmarked) [Proroxan] | 464.203 | 531.522 | 463.935 | 401.693 | 401.495 | 379.094 | 483.91 | 432.979 | 459.69 | 469.26 | 440.324 | 394.094 | 67.3656 | 486.553 | -25.0934 | 461.46 | 21.1361 | Area under the dose-response curve (AUC) MCC13 Replicate 1 (MCC13 cells (VN-MCC); follow-up screen, MCC13, replicate 1): 493.7; Area under the dose-response curve (AUC) MCC13 Replicate 2 (MCC13 cells (VN-MCC); follow-up screen, MCC13, replicate 2): 500.7; Area under the dose-response curve (AUC) MCC13 Replicate 3 (MCC13 cells (VN-MCC); follow-up screen, MCC13, replicate 3): 474.6; Area under the dose-response curve (AUC) MCC26 Replicate 1 (MCC26 cells (VN-MCC); follow-up screen, MCC26, replicate 1): 461.4; Area under the dose-response curve (AUC) MCC26 Replicate 2 (MCC26 cells (VN-MCC); follow-up screen, MCC26, replicate 2): 445.0; Area under the dose-response curve (AUC) MCC26 Replicate 3 (MCC26 cells (VN-MCC); follow-up screen, MCC26, replicate 3): 478.9; Area under the dose-response curve (AUC) UISO Replicate 1 (UISO cells (VN-MCC); follow-up screen, UISO, replicate 1): 440.8; Area under the dose-response curve (AUC) UISO Replicate 2 (UISO cells (VN-MCC); follow-up screen, UISO, replicate 2): 468.5; Area under the dose-response curve (AUC) UISO Replicate 3 (UISO cells (VN-MCC); follow-up screen, UISO, replicate 3): 484.4; Area under the dose-response curve (AUC) WAGA Replicate 1 (WAGA cells (VP-MCC); follow-up screen, WAGA, replicate 1): 471.3; Area under the dose-response curve (AUC) WAGA Replicate 2 (WAGA cells (VP-MCC); follow-up screen, WAGA, replicate 2): 460.1; Area under the dose-response curve (AUC) WAGA Replicate 3 (WAGA cells (VP-MCC); follow-up screen, WAGA, replicate 3): 475.6; Area under the dose-response curve (AUC) MKL-1 Replicate 1 (MKL-1 cells (VP-MCC); follow-up screen, MKL-1, replicate 1): 420.7; Area under the dose-response curve (AUC) MKL-1 Replicate 2 (MKL-1 cells (VP-MCC); follow-up screen, MKL-1, replicate 2): 440.6; Area under the dose-response curve (AUC) MKL-1 Replicate 3 (MKL-1 cells (VP-MCC); follow-up screen, MKL-1, replicate 3): 412.1; Area under the dose-response curve (AUC) MKL-2 Replicate 1 (MKL-2 cells (VP-MCC); follow-up screen, MKL-2, replicate 1): 423.0; Area under the dose-response curve (AUC) MKL-2 Replicate 2 (MKL-2 cells (VP-MCC); follow-up screen, MKL-2, replicate 2): 412.3; Area under the dose-response curve (AUC) MKL-2 Replicate 3 (MKL-2 cells (VP-MCC); follow-up screen, MKL-2, replicate 3): 429.1
